Experimental data taken from ChEMBL document CHEMBL1201862, “PubChem BioAssay data set” (2004).
The source made the active and inactive calls.

Key:
[1] = molecular target: T1, Methionyl-tRNA synthetase, putative (Trypanosoma brucei brucei, UniProt Q38C91); type: functional, Trypanosoma brucei brucei strain 927/4 GUTat10.1
T1 sequence (Q38C91 whole entry): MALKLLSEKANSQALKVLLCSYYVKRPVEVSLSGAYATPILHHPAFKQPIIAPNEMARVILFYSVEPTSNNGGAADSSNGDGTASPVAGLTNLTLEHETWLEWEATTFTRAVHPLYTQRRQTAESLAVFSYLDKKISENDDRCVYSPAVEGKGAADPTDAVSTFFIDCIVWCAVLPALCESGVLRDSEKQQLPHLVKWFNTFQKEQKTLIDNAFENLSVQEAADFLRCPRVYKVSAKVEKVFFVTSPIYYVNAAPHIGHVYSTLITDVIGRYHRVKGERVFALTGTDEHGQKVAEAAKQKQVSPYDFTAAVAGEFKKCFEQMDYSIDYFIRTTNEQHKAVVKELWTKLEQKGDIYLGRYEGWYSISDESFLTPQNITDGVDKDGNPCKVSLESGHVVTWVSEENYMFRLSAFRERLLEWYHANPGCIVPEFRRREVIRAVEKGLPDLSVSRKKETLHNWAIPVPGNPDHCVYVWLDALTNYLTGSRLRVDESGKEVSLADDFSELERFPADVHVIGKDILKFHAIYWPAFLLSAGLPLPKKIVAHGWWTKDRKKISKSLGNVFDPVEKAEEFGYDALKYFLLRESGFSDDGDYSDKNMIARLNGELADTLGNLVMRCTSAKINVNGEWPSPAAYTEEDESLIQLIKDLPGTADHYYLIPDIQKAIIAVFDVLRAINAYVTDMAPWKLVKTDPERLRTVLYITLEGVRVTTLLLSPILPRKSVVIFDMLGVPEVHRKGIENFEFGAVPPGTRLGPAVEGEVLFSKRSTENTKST

[2] = Counterscreen for inhibitors of Trypanosoma brucei methionyl tRNA synthetase (MetRS): Luminescence-based cell-based high throughput dose response assay to identify compounds that are cytotoxic to Jurkat human T lymphocyte cells.; type: functional
[3] = molecular target: T1, Methionyl-tRNA synthetase, putative; type: functional, Trypanosoma brucei brucei strain 927/4 GUTat10.1; remark: listed apart in the source
[4] = Late stage counterscreen for inhibitors of Trypanosoma brucei methionyl tRNA synthetase (MetRS): Luminescence-based cell-based high throughput dose response assay to identify compounds that are cytotoxic to Jurkat human T lymphocyte cells.; type: functional
[5] = molecular target: T2, Carboxy-terminal domain RNA polymerase II polypeptide A small phosphatase 1 (Homo sapiens, UniProt Q9GZU7); experiment: inhibitors of CTDSP1, concentration-response testing, biochemical assay, absorbance-based, actives from ultra-high-throughput screening (AID 540297); type: functional
T2 sequence (Q9GZU7 whole entry): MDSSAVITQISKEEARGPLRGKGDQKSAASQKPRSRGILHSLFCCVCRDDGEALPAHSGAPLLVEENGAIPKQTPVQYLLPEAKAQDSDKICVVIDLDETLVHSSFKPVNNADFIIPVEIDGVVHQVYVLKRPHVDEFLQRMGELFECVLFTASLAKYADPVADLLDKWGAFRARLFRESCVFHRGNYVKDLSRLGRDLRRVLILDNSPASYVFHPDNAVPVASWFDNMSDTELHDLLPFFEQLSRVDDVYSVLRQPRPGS

Prothrombin = Prothrombin (Bos taurus, UniProt P00735); experiment: thrombin inhibition, dose response, biochemical, fluorescence polarization, uHTS hits (AID 602369); type: functional
[6] = molecular target: DNA dC->dU-editing enzyme APOBEC-3A (Homo sapiens, UniProt P31941); experiment: APOBEC3A DNA deaminase inhibitors, dose response, biochemical (AID 504722); type: functional
[7] = molecular target: E3 ubiquitin-protein ligase UHRF1 (Homo sapiens, UniProt Q96T88); experiment: Counterscreen for inhibitors of 5-meCpG-binding domain protein 2 (MBD2): TRFRET-based biochemical high throughput dose response assay to identify inhibitors of binding of ubiquitin-like with PHD and ring finger domains 1 (UHRF1) to methylated oligonucleotide.
[8] = molecular target: DNA dC->dU-editing enzyme APOBEC-3G (Homo sapiens, UniProt Q9HC16); experiment: Dose Response confirmation of small molecule APOBEC3G DNA Deaminase Inhibitors via a fluorescence-based single-stranded DNA deaminase assay. [Related pubchem assays (depositor defined):AID493012, AID493028]; type: functional
[9] = molecular target: Eukaryotic translation initiation factor 4E (Mus musculus, UniProt P63073); experiment: eIF4E–eIF4G protein interaction inhibitors, dose response, biochemical, TR-FRET (AID 855); type: functional;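 note: potency for disrupting eIF4E binding to eIF4GI seen as loss of FRET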
[10] = molecular target: 72 kDa type IV collagenase (Homo sapiens, UniProt P08253); experiment: Dose Response validation of uHTS RPN11 inhibitor hits using a MMP-2 Fluorescence assay.; type: functional
[11] = molecular target: DNA (cytosine-5)-methyltransferase 1 (Homo sapiens, UniProt P26358); experiment: DNMT1 methyltransferase inhibitors, confirmation, biochemical, fluorescent molecular beacon (AID 602386); type: functional
[12] = molecular target: 26S proteasome non-ATPase regulatory subunit 14 (Homo sapiens, UniProt O00487); experiment: inhibition of proteasome subunit RPN11 – biochemical, fluorescence polarization, uHTS hits, confirmation (AID 602368); type: functional
Fibrinogen beta chain [13] = molecular target: T3, Fibrinogen beta chain (Homo sapiens, UniProt P02675); experiment: Fluorescence polarization-based biochemical high throughput dose response assay to identify inhibitors that disrupt the binding of a cyclic peptide (Tn7) to the fibrin proteolytic product D-Dimer and fragment E complex [DD(E )].
Fibrinogen beta chain [14] = molecular target: T3, Fibrinogen beta chain; experiment: Fluorescence polarization-based biochemical high throughput dose response assay to identify inhibitors that disrupt the binding of a cyclic peptide (Tn6) to the fibrin proteolytic product D-Dimer and fragment E complex [DD(E )].
BJ [15] = experiment: cytotoxicity toward BJ-TERT fibroblasts, dose response, cell-based, RAS-independent, luminescence (AID 1933); type: functional; conditions: Homo sapiens
BJ [16] = experiment: cytotoxicity toward BJ-TERT-LT-ST fibroblasts, dose response, cell-based, RAS-independent, luminescence (AID 1935); type: functional; conditions: Homo sapiens;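 note: BJ fibroblasts immortalized with TERT plus LT and ST oncogenes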
[17] = HEK293 cell cytotoxicity, dose response, cytotoxicity control, dry powder samples (AID 720567); type: functional, cell-based
[18] = Luminescence Cell-Based Dose Response HTS to Identify Inhibitors of 5'UTR Stem-Loop Driven Prion Protein mRNA Translation in H4 Neuroglioblastoma Cells. [Related pubchem assays: 1827 (Project Summary), 1813 (Primary HTS)]; type: functional
[19] = inhibitors of firefly luciferase expression or activity, dose response, H4 neuroglioma cells, luminescence (AID 1990); type: functional, cell-based
[20] = inhibitors of SNCA 5'UTR-driven reporter translation, confirmation, H4 neuroglioma cells, luminescence (AID 1988); type: functional, cell-based
BJ [21] = experiment: cells; type: functional, cell-based; conditions: Homo sapiens
[22] = cytotoxicity toward DRD oncogenic fibroblasts, dose response, cell-based, non-viral oncogenic, luminescence (AID 1934); type: functional; conditions: Homo sapiens
[23] = cytotoxicity in HEK-293T cells, dose response, cytotoxicity control for TCR NF-kB inhibitor project, luminescence, T-cell screen hits (AID 489026); type: functional, cell-based;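 note: cells exposed to compound about 14 hours before the viability readout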
[24] = molecular target: T4, Oxysterols receptor LXR-beta (Homo sapiens, UniProt P55055); experiment: LXR agonists, Gal4 luciferase reporter, dose response, counter-screen for ssDAF-12 agonist project, cell-based, luminescence, HEK293, S. stercoralis campaign (AID 720737); type: functional; conditions: read-out: IC50 (the source's name)
T4 sequence (P55055 whole entry): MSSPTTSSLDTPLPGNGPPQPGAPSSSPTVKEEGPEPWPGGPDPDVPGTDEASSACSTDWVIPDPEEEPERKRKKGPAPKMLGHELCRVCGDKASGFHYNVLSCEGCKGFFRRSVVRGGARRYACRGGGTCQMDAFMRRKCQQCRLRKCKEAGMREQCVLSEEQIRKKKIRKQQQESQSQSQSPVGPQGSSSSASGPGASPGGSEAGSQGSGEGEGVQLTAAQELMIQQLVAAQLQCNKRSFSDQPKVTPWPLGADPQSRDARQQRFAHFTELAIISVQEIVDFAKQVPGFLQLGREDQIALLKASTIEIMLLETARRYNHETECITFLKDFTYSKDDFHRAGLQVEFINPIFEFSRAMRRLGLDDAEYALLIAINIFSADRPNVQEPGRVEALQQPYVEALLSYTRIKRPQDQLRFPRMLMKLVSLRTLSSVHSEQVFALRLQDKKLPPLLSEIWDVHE

[25] = Luminescence-based cell-based high throughput dose response assay to identify activators of the DAF-12 from the parasite S. stercoralis (ssDAF-12).; type: functional
Paired box protein Pax-8 = Paired box protein Pax-8 (Homo sapiens, UniProt Q06710); experiment: inhibitors of PAX8-driven TPO luciferase reporter, dose response, RMG-I cells, cherry-pick (AID 687027); type: functional, cell-based;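 note: luciferase reporter driven by Pax8 target thyroperoxidase promoter measured by SteadyGlo luminescence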
[26] = NIH:OVCAR-3 ovarian cancer cell cytotoxicity, dose response, PAX8 inhibitor project, plate reader, dry powder samples (AID 743044); type: functional, cell-based
Kallikrein-7 = Kallikrein-7 (Homo sapiens, UniProt P49862); experiment: Fluorescence Intensity-based biochemical primary high throughput dose response assay to identify activators of kallikrein-7 (K7) zymogen.
[27] = inhibitors of PGC1a acetylation in cells, dose response, cell-based, cherry-picked samples (AID 720514); type: functional;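 note: potency may reflect raised or lowered acetylation signal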

T3 sequence (P02675 whole entry, the tested form may be a part): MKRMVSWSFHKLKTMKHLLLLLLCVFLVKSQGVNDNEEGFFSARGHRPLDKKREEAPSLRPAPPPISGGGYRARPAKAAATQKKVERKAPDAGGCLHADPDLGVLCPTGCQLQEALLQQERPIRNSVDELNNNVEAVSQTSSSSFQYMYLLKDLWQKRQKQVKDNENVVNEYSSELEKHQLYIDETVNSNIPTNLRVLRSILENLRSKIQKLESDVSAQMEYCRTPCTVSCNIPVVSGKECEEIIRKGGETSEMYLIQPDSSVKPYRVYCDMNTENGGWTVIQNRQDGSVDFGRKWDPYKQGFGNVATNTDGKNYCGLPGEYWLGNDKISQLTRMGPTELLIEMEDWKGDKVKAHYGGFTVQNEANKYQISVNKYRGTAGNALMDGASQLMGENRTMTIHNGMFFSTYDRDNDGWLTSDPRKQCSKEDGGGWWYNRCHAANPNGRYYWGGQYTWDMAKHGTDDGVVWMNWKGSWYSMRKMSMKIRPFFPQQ
Sequence of Paired box protein Pax-8 (Q06710 whole entry): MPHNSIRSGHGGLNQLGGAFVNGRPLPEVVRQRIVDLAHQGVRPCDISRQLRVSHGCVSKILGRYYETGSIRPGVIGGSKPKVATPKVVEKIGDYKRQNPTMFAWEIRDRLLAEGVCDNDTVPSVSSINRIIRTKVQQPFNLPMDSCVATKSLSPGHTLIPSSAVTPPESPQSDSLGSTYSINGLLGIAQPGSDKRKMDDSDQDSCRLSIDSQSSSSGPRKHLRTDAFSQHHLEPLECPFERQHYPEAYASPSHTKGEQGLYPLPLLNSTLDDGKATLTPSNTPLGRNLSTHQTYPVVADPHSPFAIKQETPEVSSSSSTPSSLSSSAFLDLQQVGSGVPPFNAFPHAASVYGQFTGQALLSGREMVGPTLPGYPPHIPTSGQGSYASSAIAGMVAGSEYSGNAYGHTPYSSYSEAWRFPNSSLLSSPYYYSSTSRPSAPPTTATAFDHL
Sequence of 26S proteasome non-ATPase regulatory subunit 14 (O00487 whole entry, the tested form may be a part): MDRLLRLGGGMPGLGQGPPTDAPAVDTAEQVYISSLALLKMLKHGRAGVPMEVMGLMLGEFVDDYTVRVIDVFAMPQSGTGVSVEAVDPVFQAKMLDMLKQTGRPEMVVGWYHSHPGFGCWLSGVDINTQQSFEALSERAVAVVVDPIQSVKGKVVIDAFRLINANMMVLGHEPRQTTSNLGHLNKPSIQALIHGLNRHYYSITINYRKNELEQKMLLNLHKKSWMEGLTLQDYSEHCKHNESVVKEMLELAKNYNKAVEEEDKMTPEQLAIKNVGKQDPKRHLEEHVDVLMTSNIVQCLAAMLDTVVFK
Sequence of DNA dC->dU-editing enzyme APOBEC-3A (P31941 whole entry, the tested form may be a part): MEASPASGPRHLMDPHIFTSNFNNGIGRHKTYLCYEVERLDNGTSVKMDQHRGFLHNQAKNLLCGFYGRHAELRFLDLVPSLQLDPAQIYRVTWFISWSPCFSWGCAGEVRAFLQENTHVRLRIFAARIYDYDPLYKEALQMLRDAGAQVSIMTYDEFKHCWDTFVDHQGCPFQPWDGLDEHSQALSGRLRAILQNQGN
Sequence of Eukaryotic translation initiation factor 4E (P63073 whole entry): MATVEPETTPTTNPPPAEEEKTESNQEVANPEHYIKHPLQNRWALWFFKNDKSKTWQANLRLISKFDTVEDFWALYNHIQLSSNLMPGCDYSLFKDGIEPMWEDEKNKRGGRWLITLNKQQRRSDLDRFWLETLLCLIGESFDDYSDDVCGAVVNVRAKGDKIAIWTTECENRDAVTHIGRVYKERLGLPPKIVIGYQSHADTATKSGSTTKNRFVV
Sequence of 72 kDa type IV collagenase (P08253 whole entry): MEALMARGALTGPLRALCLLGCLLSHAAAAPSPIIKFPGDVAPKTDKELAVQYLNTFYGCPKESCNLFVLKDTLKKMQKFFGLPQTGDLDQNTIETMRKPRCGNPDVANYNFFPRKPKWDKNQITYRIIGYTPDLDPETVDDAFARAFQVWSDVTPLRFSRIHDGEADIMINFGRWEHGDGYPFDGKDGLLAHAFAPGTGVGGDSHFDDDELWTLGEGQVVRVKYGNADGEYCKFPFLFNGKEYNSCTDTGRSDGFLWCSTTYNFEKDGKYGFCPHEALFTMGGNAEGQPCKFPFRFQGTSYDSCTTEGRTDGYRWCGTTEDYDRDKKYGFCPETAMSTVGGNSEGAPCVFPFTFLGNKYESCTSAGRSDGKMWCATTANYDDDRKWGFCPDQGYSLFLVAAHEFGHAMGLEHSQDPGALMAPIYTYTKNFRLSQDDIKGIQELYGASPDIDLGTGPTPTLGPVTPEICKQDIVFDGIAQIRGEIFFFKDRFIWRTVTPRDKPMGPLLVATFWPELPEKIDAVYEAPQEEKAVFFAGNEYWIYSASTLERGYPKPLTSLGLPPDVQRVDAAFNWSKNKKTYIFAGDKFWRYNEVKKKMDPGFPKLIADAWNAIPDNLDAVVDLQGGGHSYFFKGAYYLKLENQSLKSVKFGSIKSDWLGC
Sequence of DNA (cytosine-5)-methyltransferase 1 (P26358 whole entry): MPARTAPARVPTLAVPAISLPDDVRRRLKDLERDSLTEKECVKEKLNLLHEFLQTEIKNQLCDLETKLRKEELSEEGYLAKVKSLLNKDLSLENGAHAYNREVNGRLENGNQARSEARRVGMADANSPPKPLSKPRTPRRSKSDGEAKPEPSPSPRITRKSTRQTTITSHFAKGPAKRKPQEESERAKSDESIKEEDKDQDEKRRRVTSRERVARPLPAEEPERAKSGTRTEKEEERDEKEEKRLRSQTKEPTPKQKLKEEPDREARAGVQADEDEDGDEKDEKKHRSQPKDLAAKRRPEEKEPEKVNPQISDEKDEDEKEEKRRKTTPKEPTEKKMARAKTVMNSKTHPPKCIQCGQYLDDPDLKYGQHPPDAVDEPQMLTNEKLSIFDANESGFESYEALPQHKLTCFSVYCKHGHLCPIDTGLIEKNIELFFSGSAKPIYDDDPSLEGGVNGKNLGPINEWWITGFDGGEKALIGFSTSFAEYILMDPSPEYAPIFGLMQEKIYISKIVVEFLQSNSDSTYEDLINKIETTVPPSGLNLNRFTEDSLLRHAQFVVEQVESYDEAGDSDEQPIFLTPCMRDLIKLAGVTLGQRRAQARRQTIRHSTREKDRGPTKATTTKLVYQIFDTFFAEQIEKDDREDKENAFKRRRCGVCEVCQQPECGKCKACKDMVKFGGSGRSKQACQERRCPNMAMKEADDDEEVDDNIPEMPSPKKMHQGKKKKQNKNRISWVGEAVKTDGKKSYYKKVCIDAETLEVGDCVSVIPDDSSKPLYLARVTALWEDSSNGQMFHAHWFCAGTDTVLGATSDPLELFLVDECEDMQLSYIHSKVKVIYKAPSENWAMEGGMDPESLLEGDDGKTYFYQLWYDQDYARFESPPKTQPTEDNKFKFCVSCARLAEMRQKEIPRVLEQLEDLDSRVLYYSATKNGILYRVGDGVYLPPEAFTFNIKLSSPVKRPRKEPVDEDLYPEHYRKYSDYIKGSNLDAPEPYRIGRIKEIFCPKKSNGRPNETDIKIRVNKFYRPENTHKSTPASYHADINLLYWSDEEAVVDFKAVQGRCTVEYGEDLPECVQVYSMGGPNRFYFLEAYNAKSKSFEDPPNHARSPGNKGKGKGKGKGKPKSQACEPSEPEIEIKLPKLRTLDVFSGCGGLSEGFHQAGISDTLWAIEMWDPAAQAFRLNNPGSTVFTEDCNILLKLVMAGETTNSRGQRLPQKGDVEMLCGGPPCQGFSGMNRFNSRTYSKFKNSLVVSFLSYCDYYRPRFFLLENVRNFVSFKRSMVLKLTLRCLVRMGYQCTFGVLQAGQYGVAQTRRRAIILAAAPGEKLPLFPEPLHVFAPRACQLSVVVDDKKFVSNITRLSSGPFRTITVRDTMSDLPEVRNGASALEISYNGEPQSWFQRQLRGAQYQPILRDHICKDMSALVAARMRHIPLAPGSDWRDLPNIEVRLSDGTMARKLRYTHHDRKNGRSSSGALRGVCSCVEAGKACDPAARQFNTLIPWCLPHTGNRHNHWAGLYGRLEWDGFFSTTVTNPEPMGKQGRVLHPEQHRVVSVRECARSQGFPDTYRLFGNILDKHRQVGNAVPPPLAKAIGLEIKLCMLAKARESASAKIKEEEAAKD
Sequence of E3 ubiquitin-protein ligase UHRF1 (Q96T88 whole entry, the tested form may be a part): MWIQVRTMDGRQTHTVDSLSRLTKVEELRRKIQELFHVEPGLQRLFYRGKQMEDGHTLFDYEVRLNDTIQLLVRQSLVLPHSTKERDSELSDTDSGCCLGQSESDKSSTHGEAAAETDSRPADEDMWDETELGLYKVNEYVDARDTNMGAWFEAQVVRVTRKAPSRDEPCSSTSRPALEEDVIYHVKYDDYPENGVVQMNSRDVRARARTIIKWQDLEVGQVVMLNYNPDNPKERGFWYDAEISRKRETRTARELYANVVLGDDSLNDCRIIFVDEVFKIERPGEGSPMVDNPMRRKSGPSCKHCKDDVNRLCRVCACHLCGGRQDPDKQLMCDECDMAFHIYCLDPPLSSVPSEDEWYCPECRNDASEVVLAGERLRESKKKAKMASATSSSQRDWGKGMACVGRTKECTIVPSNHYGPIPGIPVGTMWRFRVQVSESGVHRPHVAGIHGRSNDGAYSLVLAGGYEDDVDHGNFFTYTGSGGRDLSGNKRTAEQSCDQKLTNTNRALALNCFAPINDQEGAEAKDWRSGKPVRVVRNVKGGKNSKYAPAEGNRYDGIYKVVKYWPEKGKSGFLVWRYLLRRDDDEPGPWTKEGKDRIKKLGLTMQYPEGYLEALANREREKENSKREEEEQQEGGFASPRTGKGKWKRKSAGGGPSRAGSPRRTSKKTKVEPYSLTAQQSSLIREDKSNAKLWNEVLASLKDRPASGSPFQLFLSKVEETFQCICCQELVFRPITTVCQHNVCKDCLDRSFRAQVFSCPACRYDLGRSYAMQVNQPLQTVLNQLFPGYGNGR
Sequence of Kallikrein-7 (P49862 whole entry): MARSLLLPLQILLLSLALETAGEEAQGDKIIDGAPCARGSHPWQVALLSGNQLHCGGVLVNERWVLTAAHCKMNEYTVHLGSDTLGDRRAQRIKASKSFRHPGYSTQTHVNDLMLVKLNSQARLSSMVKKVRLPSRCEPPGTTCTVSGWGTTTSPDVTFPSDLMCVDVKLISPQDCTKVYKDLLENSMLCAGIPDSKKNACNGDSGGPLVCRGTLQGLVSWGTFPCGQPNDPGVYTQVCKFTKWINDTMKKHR

## O=C1[C@@H]2Cc3c([nH]c4ccccc34)C(c3cccc([N+](=O)[O-])c3)N2C(=O)CN1CCCO (stereo not given in full)
[1]
  IC50: 0.911 µM (active)
[2]
  IC50: 83.3 µM (inactive)
[3]
  IC50: 0.528 µM (active)
[4]
  IC50: > 83.3 µM (inactive)

## Cc1c2cnn(CC(=O)Nc3c(F)c(F)cc(F)c3F)c(=O)c2c(C)n1Cc1ccccc1F
[5]
  IC50: 2.96 µM (active)
Prothrombin
  IC50: 50.5 µM (active)
[6]
  IC50: 49.3 µM (active)
[7]
  IC50: > 43.8 µM (inactive)
[8]
  IC50: 9.31 µM (active)
[9]
  IC50: 50 µM (inactive)
[10]
  IC50: > 100 µM (inactive)
[11]
  IC50: 7.6 µM (active)
[12]
  IC50: 19.5 µM (active)

## CN1CCS/C1=C/C=C1/SC(=S)N(Cc2ccccc2)C1=O
Fibrinogen beta chain [13]
  IC50: > 83.3 µM (inactive)
Fibrinogen beta chain [14]
  IC50: 10.2 µM (inactive)

## CCCOC(=O)c1[nH]c2c(c1C)C(=O)CC(c1cccs1)C2 (stereo not given)
BJ [15]
  EC50: 0.567 µM (active)
BJ [16]
  EC50: 0.399 µM (active)
[17]
  AC50: 0.594 µM (active)
[18]
  EC50: 1.01 µM (active)
[19]
  EC50: 0.391 µM (active)
[20]
  EC50: 0.167 µM (active)
BJ [21]
  EC50: 1.82 µM (active)
[22]
  EC50: 0.615 µM (active)
[23]
  IC50: > 80 µM (inactive)

## Cc1ccnc(NC(=O)c2ccc3nc(O)c(O)nc3c2)c1
[24]
  EC50: > 67.5 µM (inactive)
[25]
  IC50: > 67.5 µM (inactive)

## C[C@@H]1CN([C@H](C)CO)S(=O)(=O)c2ccc(C#Cc3ccc(F)cc3)cc2O[C@H]1CN(C)C(=O)NC1CCCCC1
Paired box protein Pax-8
  AC50: 9.47 µM (active)
[26]
  AC50: 48.1 µM (active)

## Nc1nc2ccc(Cl)cc2cc1C(=O)NCCCN1CCOCC1
Kallikrein-7
  EC50: 28.3 µM (inactive)

## C[C@H](CO)N1C[C@H](C)[C@@H](CN(C)CC2CCOCC2)Oc2ncc(Br)cc2C1=O
[27]
  AC50: 36.4 µM (active)
